The values that follow come from patent US20230183237A1, “COMPETITIVE AND NONCOMPETITIVE INHIBITORS OF THE MUSCARINIC ACETYLCHOLINE RECEPTOR M5” (Vanderbilt University, priority 2020, published 2023).

Structures are written as SMILES.

In this experiment the target is T1, hM5 (Homo sapiens, UniProt P08912).
T1 construct: expressed in transfected cells
T1 sequence (P08912 1-532): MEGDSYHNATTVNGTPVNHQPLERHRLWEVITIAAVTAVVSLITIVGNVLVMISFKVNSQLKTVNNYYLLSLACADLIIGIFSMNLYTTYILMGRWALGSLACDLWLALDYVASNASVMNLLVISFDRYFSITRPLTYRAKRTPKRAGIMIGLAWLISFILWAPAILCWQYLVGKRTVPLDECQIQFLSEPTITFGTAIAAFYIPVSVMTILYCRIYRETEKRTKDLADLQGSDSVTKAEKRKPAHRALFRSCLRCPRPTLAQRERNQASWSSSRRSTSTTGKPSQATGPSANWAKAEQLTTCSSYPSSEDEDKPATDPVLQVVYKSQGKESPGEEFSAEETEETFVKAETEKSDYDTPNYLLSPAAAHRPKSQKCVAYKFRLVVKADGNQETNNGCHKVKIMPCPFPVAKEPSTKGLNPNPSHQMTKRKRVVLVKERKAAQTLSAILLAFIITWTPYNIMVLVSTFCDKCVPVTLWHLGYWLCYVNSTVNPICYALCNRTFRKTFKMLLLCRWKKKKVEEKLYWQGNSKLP
In words: Calcium mobilization concentration-response (IC50 vs EC80 acetylcholine), CHO hM5. It is filed as cell-based. As to conditions: CELL LINE hM5; calcium mobilization, EC80 acetylcholine addition; read-out: IC50. Put shortly:
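CHO cells stably expressing hM5, dye-loaded, in HBSS/20 mM HEPES/2.5 mM probenecid, pH 7.4. Compounds were pre-incubated 140 s before an EC80 acetylcholine challenge, with calcium flux read kinetically.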
Turning to `Cc1nc2cc(C)c(C3CCN(S(=O)(=O)c4ccc5c(c4)C(C)CO5)CC3)cn2n1` (stereo not shown) [Compound 89, 2,7-dimethyl-6-(1-((3-methyl-2,3-dihydrobenzofuran-5-yl)sulfonyl)piperidin-4-yl)-[1,2,4]triazolo[1,5-a]pyridine], the IC50 was found to be 2100 nM. As for `COc1cc2ncnn2cc1C1CCN(S(=O)(=O)c2ccc3c(c2)C(C)CO3)CC1` (stereo not shown) [Compound 90, 7-methoxy-6-(1-((3-methyl-2,3-dihydrobenzofuran-5-yl)sulfonyl)piperidin-4-yl)-[1,2,4]triazolo[1,5-a]pyridine], the IC50 came to 3100 nM. Consider `[2H]C1([2H])Oc2ccc(S(=O)(=O)N3CCC(c4cn5nc(C)nc5cc4C)CC3)cc2C1([2H])[2H]` [Compound 91, 6-(1-((2,3-dihydrobenzofuran-5-yl-2,2,3,3-d4)sulfonyl)piperidin-4-yl)-2,7-dimethyl-[1,2,4]triazolo[1,5-a]pyridine], for which the IC50 is greater than 10000 nM. `[2H]C1([2H])Oc2ccc(S(=O)(=O)N3CCC(c4cn5ncnc5cc4OC)CC3)cc2C1([2H])[2H]` [Compound 92, 6-(1-((2,3-dihydrobenzofuran-5-yl-2,2,3,3-d4)sulfonyl)piperidin-4-yl)-7-methoxy-[1,2,4]triazolo[1,5-a]pyridine]: the IC50 was greater than 10000 nM. The value for `O=S(=O)(c1cc2c(cc1F)OCC2)N1CCC(c2cc3cc[nH]c3cn2)CC1` [Compound 93, 5-(1-((6-fluoro-2,3-dihydrobenzofuran-5-yl)sulfonyl)piperidin-4-yl)-1H-pyrrolo[2,3-c]pyridine] was greater than 10000 nM.

With `O=S(=O)(c1ccc(Cl)nc1)N1CCC(c2cc3cc[nH]c3cn2)CC1` [Compound 94, 5-(1-((6-chloropyridin-3-yl)sulfonyl)piperidin-4-yl)-1H-pyrrolo[2,3-c]pyridine], the IC50 was greater than 10000 nM. In the case of `Cc1nn(C)cc1S(=O)(=O)N1CCC(c2cc3cc[nH]c3cn2)CC1` [Compound 95, 5-(1-((1,3-dimethyl-1H-pyrazol-4-yl)sulfonyl)piperidin-4-yl)-1H-pyrrolo[2,3-c]pyridine] it was greater than 10000 nM. Regarding `Cc1cc2ncnn2cc1C1CCN(S(=O)(=O)c2ccccc2-c2ccno2)CC1` [Compound 96, 5-(2-((4-(7-methyl-[1,2,4]triazolo[1,5-a]pyridin-6-yl)piperidin-1-yl)sulfonyl)phenyl)isoxazole], the IC50 is greater than 10000 nM. For `Cc1cc2ncnn2cc1C1CCN(S(=O)(=O)c2ccccc2F)CC1` [Compound 97, 6-(1-((2-fluorophenyl)sulfonyl)piperidin-4-yl)-7-methyl-[1,2,4]triazolo[1,5-a]pyridine], the IC50 is greater than 10000 nM. Regarding `O=S(=O)(c1ccc2c(c1)CCO2)N1CCC(c2nccs2)CC1` [Compound 98, 2-(1-((2,3-dihydrobenzofuran-5-yl)sulfonyl)piperidin-4-yl)thiazole], the IC50 was greater than 10000 nM. Regarding `Cn1cc(S(=O)(=O)N2CCC(c3cn4ncnc4cc3C(F)(F)F)CC2)c(C(F)(F)F)n1` [Compound 99, 6-(1-((1-methyl-3-(trifluoromethyl)-1H-pyrazol-4-yl)sulfonyl)piperidin-4-yl)-7-(trifluoromethyl)-[1,2,4]triazolo[1,5-a]pyridine], the IC50 was 5200 nM. In the case of `Cc1cc2ncnn2cc1C1CCN(S(=O)(=O)c2cc3c(cc2C)OCC3C)CC1` (stereo not shown) [Compound 100, 6-(1-((3,6-dimethyl-2,3-dihydrobenzofuran-5-yl)sulfonyl)piperidin-4-yl)-7-methyl-[1,2,4]triazolo[1,5-a]pyridine] it was 39 nM; in that of `Cc1cc2ncnn2cc1C1CCN(S(=O)(=O)c2cn(C)nc2C(F)(F)F)CC1` [Compound 101, 7-methyl-6-(1-((1-methyl-3-(trifluoromethyl)-1H-pyrazol-4-yl)sulfonyl)piperidin-4-yl)-[1,2,4]triazolo[1,5-a]pyridine], 2100 nM. The value for `Cc1cc2ncnn2cc1C1CCN(S(=O)(=O)c2cn(-c3ccccc3)nc2C)CC1` [Compound 102, 7-methyl-6-(1-((3-methyl-1-phenyl-1H-pyrazol-4-yl)sulfonyl)piperidin-4-yl)-[1,2,4]triazolo[1,5-a]pyridine] was greater than 10000 nM. In the case of `Cc1cc2ncnn2cc1C1CCN(S(=O)(=O)c2cc3c(cc2F)OCC3C)CC1` (stereo not shown) [Compound 103, 6-(1-((6-fluoro-3-methyl-2,3-dihydrobenzofuran-5-yl)sulfonyl)piperidin-4-yl)-7-methyl-[1,2,4]triazolo[5-a]pyridine] it was 195 nM. `Cc1cc2ncnn2cc1C1CCN(S(=O)(=O)c2ccc3c(c2F)C(C)CO3)CC1` (stereo not shown) [Compound 104, 6-(1-((4-fluoro-3-methyl-2,3-dihydrobenzofuran-5-yl)sulfonyl)piperidin-4-yl)-7-methyl-[1,2,4]triazolo[1,5-a]pyridine]: the IC50 was found to be 114 nM.

Take `O=S(=O)(c1ccc2c(c1)CCO2)N1CCC(c2cn3ncnc3cc2F)CC1` [Compound 105, 6-(1-((2,3-dihydrobenzofuran-5-yl)sulfonyl)piperidin-4-yl)-7-fluoro-[1,2,4]triazolo[1,5-a]pyridine]: the IC50 turned out to be 2100 nM. The value for `O=S(=O)(c1cc2c(cc1F)OCC2)N1CCC(c2cn3ncnc3cc2F)CC1` [Compound 106, 7-fluoro-6-(1-((6-fluoro-2,3-dihydrobenzofuran-5-yl)sulfonyl)piperidin-4-yl)-[1,2,4]triazolo[1,5-a]pyridine] was greater than 10000 nM; that for `O=S(=O)(c1ccc2ncsc2c1)N1CCC(c2cn3ncnc3cc2F)CC1` [Compound 107, 6-((4-(7-fluoro-[1,2,4]triazolo[1,5-a]pyridin-6-yl)piperidin-1-yl)sulfonyl)benzo[d]thiazole] was greater than 10000 nM. The value for `Cc1nn(C)cc1S(=O)(=O)N1CCC(c2cn3ncnc3cc2F)CC1` [Compound 108, 6-(1-((1,3-dimethyl-1H-pyrazol-4-yl)sulfonyl)piperidin-4-yl)-7-fluoro-[1,2,4]triazolo[1,5-a]pyridine] was greater than 10000 nM. As for `O=S(=O)(c1ccc2c(c1)CCO2)N1CCC(c2cn3ncnc3cc2C(F)(F)F)CC1` [Compound 109, 6-(1-((2,3-dihydrobenzofuran-5-yl)sulfonyl)piperidin-4-yl)-7-(trifluoromethyl)-[1,2,4]triazolo[1,5-a]pyridine], the half-maximal inhibitory concentration (IC50) came to 746 nM.

Consider `O=S(=O)(c1cc2c(cc1F)OCC2)N1CCC(c2cn3ncnc3cc2C(F)(F)F)CC1` [Compound 110, 6-(1-((6-fluoro-2,3-dihydrobenzofuran-5-yl)sulfonyl)piperidin-4-yl)-7-(trifluoromethyl)-[1,2,4]triazolo[1,5-a]pyridine], for which the IC50 was 2100 nM. Take `O=S(=O)(c1ccc2ncsc2c1)N1CCC(c2cn3ncnc3cc2C(F)(F)F)CC1` [Compound 111, 6-((4-(7-(trifluoromethyl)-[1,2,4]triazolo[1,5-a]pyridin-6-yl)piperidin-1-yl)sulfonyl)benzo[d]thiazole]: the IC50 amounted to 1800 nM. On to `O=S(=O)(c1ccc(Cl)nc1)N1CCC(c2cn3ncnc3cc2C(F)(F)F)CC1` [Compound 112, 6-(1-((6-chloropyridin-3-yl)sulfonyl)piperidin-4-yl)-7-(trifluoromethyl)-[1,2,4]triazolo[1,5-a]pyridine], for which the half-inhibitory concentration (IC50) is greater than 10000 nM. As to `Cc1nn(C)cc1S(=O)(=O)N1CCC(c2cn3ncnc3cc2C(F)(F)F)CC1` [Compound 113, 6-(1-((1,3-dimethyl-1H-pyrazol-4-yl)sulfonyl)piperidin-4-yl)-7-(trifluoromethyl)-[1,2,4]triazolo[1,5-a]pyridine], the IC50 worked out at 2400 nM. In the case of `COc1cc(C2CCN(S(=O)(=O)c3ccc4c(c3)CCO4)CC2)cn2ncnc12` [Compound 114, 6-(1-((2,3-dihydrobenzofuran-5-yl)sulfonyl)piperidin-4-yl)-8-methoxy-[1,2,4]triazolo[1,5-a]pyridine], the IC50 was greater than 10000 nM.

As for `COc1cc(C2CCN(S(=O)(=O)c3cc4c(cc3F)OCC4)CC2)cn2ncnc12` [Compound 115, 6-(1-((6-fluoro-2,3-dihydrobenzofuran-5-yl)sulfonyl)piperidin-4-yl)-8-methoxy-[1,2,4]triazolo[1,5-a]pyridine], the IC50 is greater than 10000 nM.

`Cc1cc2ncnn2cc1C1CCN(S(=O)(=O)c2c(F)cc3c(c2F)C(C)CO3)CC1` (stereo not shown) [Compound 116, 6-(1-((4,6-difluoro-3-methyl-2,3-dihydrobenzofuran-5-yl)sulfonyl)piperidin-4-yl)-7-methyl-[1,2,4]triazolo[1,5-a]pyridine]: the IC50 turned out to be 205 nM. The value for `Cc1cc2ncnn2cc1C1CCN(S(=O)(=O)c2c(C(F)(F)F)nn(C)c2C)CC1` [Compound 118, 6-(1-((1,5-dimethyl-3-(trifluoromethyl)-1H-pyrazol-4-yl)sulfonyl)piperidin-4-yl)-7-methyl-[1,2,4]triazolo[1,5-a]pyridine] was 81 nM. On to `Cc1cc2ncnn2cc1C1CCN(S(=O)(=O)c2ccc3c(c2)N(C)CCO3)CC1` [Compound 121, 4-methyl-6-((4-(7-methyl-[1,2,4]triazolo[1,5-a]pyridin-6-yl)piperidin-1-yl)sulfonyl)-3,4-dihydro-2H-benzo[b][1,4]oxazine], for which the IC50 was found to be 343 nM.

`Cc1cc2ncnn2cc1C1CCN(S(=O)(=O)c2ccc3c(c2)nnn3C)CC1` [Compound 124, 1-methyl-5-((4-(7-methyl-[1,2,4]triazolo[1,5-a]pyridin-6-yl)piperidin-1-yl)sulfonyl)-1H-benzo[d][1,2,3]triazole]: the half-inhibitory concentration (IC50) was greater than 10000 nM.
